For the test, the target named is T1, chimeric human H3 receptor (Homo sapiens, UniProt Q9Y5N1).
T1 construct: rat Galpha-i2 (Gnai2, rat); made in house; host or cells: Sf9 insect cells (baculovirus); P2 membranes
As to the kind of experiment: Chimeric human H3 receptor screening GTP binding assay (inhibition of histamine-stimulated GTP-gamma35S binding, Example 8). The class given is biochemical. As to conditions: 1 h; assay described in Example 8; symbol "!" in column headed Ki; read-out: Ki ("!": percent inhibition of agonist-induced GTP-gammaS binding to H3). In a few lines:
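Compound tested at 4 μM against 1 μM histamine stimulation; 125 pM GTP-gamma35S binding measured by filtration and scintillation after 60 min at room temperature. Membranes from Sf9 cells expressing chimeric human H3 plus G-protein subunits, in Tris pH 7.4/NaCl/MgCl2/GDP buffer; values are % inhibition after nonspecific subtraction.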

Molecules are shown by their SMILES.

This passage reports inhibition results from US20080051387A1, “TETRAHYDROPYRIDO[3,4-D]PYRIMIDINES AND RELATED ANALOGUES” (priority 2006, published 2008).

A word on the inhibition: it is the percentage by which the read-out fell short of the control.

T1 sequence (Q9Y5N1 with tags, fused parts or gaps): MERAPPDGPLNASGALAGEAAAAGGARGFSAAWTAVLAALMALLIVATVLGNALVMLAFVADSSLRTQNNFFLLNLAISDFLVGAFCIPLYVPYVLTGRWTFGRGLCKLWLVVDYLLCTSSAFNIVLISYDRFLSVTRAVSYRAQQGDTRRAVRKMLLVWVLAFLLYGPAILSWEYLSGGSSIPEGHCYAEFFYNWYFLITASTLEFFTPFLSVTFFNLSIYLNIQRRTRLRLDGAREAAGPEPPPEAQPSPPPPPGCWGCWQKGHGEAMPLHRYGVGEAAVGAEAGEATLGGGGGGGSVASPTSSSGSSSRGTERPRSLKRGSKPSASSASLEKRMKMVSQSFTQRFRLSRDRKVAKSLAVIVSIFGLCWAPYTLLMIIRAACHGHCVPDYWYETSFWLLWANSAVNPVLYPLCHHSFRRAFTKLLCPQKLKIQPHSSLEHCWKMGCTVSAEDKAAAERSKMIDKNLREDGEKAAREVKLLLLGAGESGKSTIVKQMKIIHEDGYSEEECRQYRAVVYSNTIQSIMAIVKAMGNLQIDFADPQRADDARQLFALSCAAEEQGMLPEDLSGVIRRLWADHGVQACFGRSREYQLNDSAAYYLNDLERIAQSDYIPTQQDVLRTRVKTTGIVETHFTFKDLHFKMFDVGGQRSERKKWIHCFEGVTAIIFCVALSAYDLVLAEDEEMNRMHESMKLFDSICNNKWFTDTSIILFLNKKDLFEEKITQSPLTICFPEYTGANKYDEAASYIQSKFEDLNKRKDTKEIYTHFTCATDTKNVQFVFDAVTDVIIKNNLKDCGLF

Take `O=C(c1ccc(-n2cccc2)nc1)N1CCc2cnc(N3CCN(C4CCC4)CC3)nc2CC1` [Compound 480, 2-(4-cyclobutylpiperazin-1-yl)-7-{[6-(1H-pyrrol-1-yl)pyridin-3-yl]carbonyl}-6,7,8,9-tetrahydro-5H-pyrimido[4,5-d]azepine]: the inhibition at 4 µM was ≥ 90%.
As for `O=C(c1cncc(Br)c1)N1CCc2cnc(N3CCN(C4CCC4)CC3)nc2CC1` [Compound 481, 7-[(5-bromopyridin-3-yl)carbonyl]-2-(4-cyclobutylpiperazin-1-yl)-6,7,8,9-tetrahydro-5H-pyrimido[4,5-d]azepine], the figure is ≥ 90%; as for `O=C(c1cnc2ccccc2c1)N1CCc2cnc(N3CCN(C4CCC4)CC3)nc2CC1` [Compound 482, 2-(4-cyclobutylpiperazin-1-yl)-7-(quinolin-3-ylcarbonyl)-6,7,8,9-tetrahydro-5H-pyrimido[4,5-d]azepine], ≥ 90%.
As for `O=C(c1ccnc(Cl)c1)N1CCc2cnc(N3CCN(C4CCC4)CC3)nc2CC1` [Compound 483, 7-(2-chloroisonicotinoyl)-2-(4-cyclobutylpiperazin-1-yl)-6,7,8,9-tetrahydro-5H-pyrimido[4,5-d]azepine], the inhibition at 4 µM is ≥ 90%.
As for `Cc1cc(C(=O)N2CCc3cnc(N4CCN(C5CCC5)CC4)nc3CC2)cc(Cl)n1` [Compound 484, 7-(2-chloro-6-methylisonicotinoyl)-2-(4-cyclobutylpiperazin-1-yl)-6,7,8,9-tetrahydro-5H-pyrimido[4,5-d]azepine], the figure is ≥ 90%; as for `COc1cc(C(=O)N2CCc3cnc(N4CCN(C5CCC5)CC4)nc3CC2)cc(Cl)n1` [Compound 485, 7-(2-chloro-6-methoxyisonicotinoyl)-2-(4-cyclobutylpiperazin-1-yl)-6,7,8,9-tetrahydro-5H-pyrimido[4,5-d]azepine], ≥ 90%; as for `Cc1cnc(C(=O)N2CCc3cnc(N4CCN(C5CCC5)CC4)nc3CC2)cn1` [Compound 486, 2-(4-cyclobutylpiperazin-1-yl)-7-[(5-methylpyrazin-2-yl)carbonyl]-6,7,8,9-tetrahydro-5H-pyrimido[4,5-d]azepine], ≥ 90%.
For `O=C(c1ccncc1)N1CCc2cnc(N3CCN(C4CCC4)CC3)nc2CC1` [Compound 487, 2-(4-cyclobutylpiperazin-1-yl)-7-isonicotinoyl-6,7,8,9-tetrahydro-5H-pyrimido[4,5-d]azepine] the value was ≥ 90%; for `O=C(c1cc(-c2ccccc2)nc2ccccc12)N1CCc2cnc(N3CCN(C4CCC4)CC3)nc2CC1` [Compound 488, 2-(4-cyclobutylpiperazin-1-yl)-7-[(2-phenylquinolin-4-yl)carbonyl]-6,7,8,9-tetrahydro-5H-pyrimido[4,5-d]azepine], ≥ 90%; for `CCCCc1ccc(C(=O)N2CCc3cnc(N4CCN(C5CCC5)CC4)nc3CC2)nc1` [Compound 489, 7-[(5-butylpyridin-2-yl)carbonyl]-2-(4-cyclobutylpiperazin-1-yl)-6,7,8,9-tetrahydro-5H-pyrimido[4,5-d]azepine], ≥ 90%.
On to `COc1cc(C(=O)N2CCc3cnc(N4CCN(C5CCC5)CC4)nc3CC2)nc2ccccc12` [Compound 490, 2-(4-cyclobutylpiperazin-1-yl)-7-[(4-methoxyquinolin-2-yl)carbonyl]-6,7,8,9-tetrahydro-5H-pyrimido[4,5-d]azepine], for which the inhibition at 4 µM is ≥ 90%.
For `O=C(c1cc(Cl)nc(Cl)c1)N1CCc2cnc(N3CCN(C4CCC4)CC3)nc2CC1` [Compound 491, 2-(4-cyclobutylpiperazin-1-yl)-7-(2,6-dichloroisonicotinoyl)-6,7,8,9-tetrahydro-5H-pyrimido[4,5-d]azepine] the value was ≥ 90%.
As for `O=C(c1ccnc2ccccc12)N1CCc2cnc(N3CCN(C4CCC4)CC3)nc2CC1` [Compound 492, 2-(4-cyclobutylpiperazin-1-yl)-7-(quinolin-4-ylcarbonyl)-6,7,8,9-tetrahydro-5H-pyrimido[4,5-d]azepine], the figure is ≥ 90%; as for `O=C(c1cccnc1Sc1ccc(Cl)cc1)N1CCc2cnc(N3CCN(C4CCC4)CC3)nc2CC1` [Compound 493, 7-({2-[(4-chlorophenyl)thio]pyridin-3-yl}carbonyl)-2-(4-cyclobutylpiperazin-1-yl)-6,7,8,9-tetrahydro-5H-pyrimido[4,5-d]azepine], ≥ 90%.
As for `CC(C)(C)c1ccc(Oc2ncccc2C(=O)N2CCc3cnc(N4CCN(C5CCC5)CC4)nc3CC2)cc1` [Compound 494, 7-{[2-(4-tert-butylphenoxy)pyridin-3-yl]carbonyl}-2-(4-cyclobutylpiperazin-1-yl)-6,7,8,9-tetrahydro-5H-pyrimido[4,5-d]azepine], the figure is ≥ 90%.
Regarding `O=C(c1cccnc1Oc1ccccc1)N1CCc2cnc(N3CCN(C4CCC4)CC3)nc2CC1` [Compound 495, 2-(4-cyclobutylpiperazin-1-yl)-7-[(2-phenoxypyridin-3-yl)carbonyl]-6,7,8,9-tetrahydro-5H-pyrimido[4,5-d]azepine], the inhibition at 4 µM is ≥ 90%.
For `O=C(c1cccnc1Sc1ccccc1)N1CCc2cnc(N3CCN(C4CCC4)CC3)nc2CC1` [Compound 496, 2-(4-cyclobutylpiperazin-1-yl)-7-{[2-(phenylthio)pyridin-3-yl]carbonyl}-6,7,8,9-tetrahydro-5H-pyrimido[4,5-d]azepine], the inhibition at 4 µM is ≥ 90%.
For `O=C(c1cccnc1Oc1ccc(Cl)cc1)N1CCc2cnc(N3CCN(C4CCC4)CC3)nc2CC1` [Compound 497] the value was ≥ 90%; for `COc1ncccc1C(=O)N1CCc2cnc(N3CCN(C4CCC4)CC3)nc2CC1` [Compound 498, 2-(4-cyclobutylpiperazin-1-yl)-7-[(2-methoxypyridin-3-yl)carbonyl]-6,7,8,9-tetrahydro-5H-pyrimido[4,5-d]azepine], ≥ 90%.
For the molecule `C=CCSc1ncccc1C(=O)N1CCc2cnc(N3CCN(C4CCC4)CC3)nc2CC1` [Compound 499, 7-{[2-(allythio)pyridin-3-yl]carbonyl}-2-(4-cyclobutylpiperazin-1-yl)-6,7,8,9-tetrahydro-5H-pyrimido[4,5-d]azepine], the inhibition at 4 µM was ≥ 90%.
For `COc1ccc(OC)c(Sc2ncccc2C(=O)N2CCc3cnc(N4CCN(C5CCC5)CC4)nc3CC2)c1` [Compound 500, 2-(4-cyclobutylpiperazin-1-yl)-7-({2-[(2,5-dimethoxyphenyl)thio]pyridin-3-yl}carbonyl)-6,7,8,9-tetrahydro-5H-pyrimido[4,5-d]azepine] the value was ≥ 90%.
For `CSc1ncccc1C(=O)N1CCc2cnc(N3CCN(C4CCC4)CC3)nc2CC1` [Compound 501, 2-(4-cyclobutylpiperazin-1-yl)-7-{[2-(methylthio)pyridin-3-yl]carbonyl}-6,7,8,9-tetrahydro-5H-pyrimido[4,5-d]azepine] the value was ≥ 90%; for `CCSc1ncccc1C(=O)N1CCc2cnc(N3CCN(C4CCC4)CC3)nc2CC1` [Compound 502, 2-(4-cyclobutylpiperazin-1-yl)-7-{[2-(ethylthio)pyridin-3-yl]carbonyl}-6,7,8,9-tetrahydro-5H-pyrimido[4,5-d]azepine], ≥ 90%; for `Cc1ccc(Oc2ncccc2C(=O)N2CCc3cnc(N4CCN(C5CCC5)CC4)nc3CC2)c(C)c1` [Compound 503, 2-(4-cyclobutylpiperazin-1-yl)-7-{[2-(2,4-dimethylphenoxy)pyridin-3-yl]carbonyl}-6,7,8,9-tetrahydro-5H-pyrimido[4,5-d]azepine], ≥ 90%.
Take `Cc1c(C(=O)N2CCc3cnc(N4CCN(C5CCC5)CC4)nc3CC2)cnn1-c1ccccc1` [Compound 504, 2-(4-cyclobutylpiperazin-1-yl)-7-[(5-methyl-1-phenyl-1H-pyrazol-4-yl)carbonyl]-6,7,8,9-tetrahydro-5H-pyrimido[4,5-d]azepine]: the inhibition at 4 µM was ≥ 90%.
In the case of `Cc1cc(C(=O)N2CCc3cnc(N4CCN(C5CCC5)CC4)nc3CC2)n(C(C)(C)C)n1` [Compound 505, 7-[(1-tert-butyl-3-methyl-1H-pyrazol-5-yl)carbonyl]-2-(4-cyclobutylpiperazin-1-yl)-6,7,8,9-tetrahydro-5H-pyrimido[4,5-d]azepine], the inhibition at 4 µM was ≥ 90%.
For the molecule `Cn1nc(C(C)(C)C)cc1C(=O)N1CCc2cnc(N3CCN(C4CCC4)CC3)nc2CC1` [Compound 506, 7-[(3-tert-butyl-1-methyl-1H-pyrazol-5-yl)carbonyl]-2-(4-cyclobutylpiperazin-1-yl)-6,7,8,9-tetrahydro-5H-pyrimido[4,5-d]azepine], the inhibition at 4 µM was ≥ 90%.
Consider `O=C(c1cnn(-c2ccc(Cl)cc2)c1C(F)(F)F)N1CCc2cnc(N3CCN(C4CCC4)CC3)nc2CC1` [Compound 507, 7-{[1-(4-chlorophenyl)-5-(trifluoromethyl)-1H-pyrazol-4-yl]carbonyl}-2-(4-cyclobutylpiperazin-1-yl)-6,7,8,9-tetrahydro-5H-pyrimido[4,5-d]azepine], for which the inhibition at 4 µM was ≥ 90%.
For `CCCc1c(C(=O)N2CCc3cnc(N4CCN(C5CCC5)CC4)nc3CC2)cnn1-c1ccccc1` [Compound 508, 2-(4-cyclobutylpiperazin-1-yl)-7-[(1-phenyl-5-propyl-1H-pyrazol-4-yl)carbonyl]-6,7,8,9-tetrahydro-5H-pyrimido[4,5-d]azepine] the value was ≥ 90%.
As for `CCn1nc(C)c(Br)c1C(=O)N1CCc2cnc(N3CCN(C4CCC4)CC3)nc2CC1` [Compound 509, 7-[(4-bromo-1-ethyl-3-methyl-1H-pyrazol-5-yl)carbonyl]-2-(4-cyclobutylpiperazin-1-yl)-6,7,8,9-tetrahydro-5H-pyrimido[4,5-d]azepine], the figure is ≥ 90%.
